# According to patent US8580738B2, “Methods for treatment of reperfusion injury and other cardiac conditions” (The Board of Regents of the University of Texas System, priority 2007, dated 2013):
# “Also recorded” adds a separate entry of the source. Where two headings read alike, the source gives them in different places. Where no end group is shown, it is not given here.
# What was measured:
# [1] = test system: calcitonin-gene related peptide mRNA in intrinsic cardiac adrenergic cells; assay: CGRP mRNA regulation in isolated rat intrinsic cardiac adrenergic (ICA) cells, RT-PCR / quantitative real-time PCR; type: cell-based; details: for increase in calcitonin-gene related peptide mRNA (quantitative real-time PCR): isolated rat ICA cells, 60-min treatment, DPDPE 100 nM or epinephrine 1 μmol; for increase in calcitonin-gene related peptide mRNA (quantitative real-time PCR) / effect on calcitonin-gene related peptide mRNA levels: FIG. 3; for effect on calcitonin-gene related peptide mRNA levels: rat ICA cells
# Protocol: 0-h represents immediately after 60-min drug treatment. 6-h and 24-h represent 6 and 24 hrs after 60 min drug treatment, respectively. Epi: epinephrine. UT: DPDPE-untreated.
# RNA load is verified by the amount of GAPDH. Bar graphs are data normalized to their respective GAPDH mRNA.
# [2] = cited from earlier work
# [3] = test system: rat myocardial ischemia-reperfusion model; assay: Rat myocardial ischemia-reperfusion model (30-min LAD occlusion, 4-hr reperfusion), infarct size; type: in vivo; details: for infarct size: 30-min ischemia, 4-hr reperfusion, drug i.v. before ischemia, saline control 25±3%
# Protocol: Rat MI model is created by 30-min LAD ligation followed by 4-h reperfusion.
# (T+C)H: with high dose of terbutaline 1 mg/kg.
# Experimental Myocardial Ischemia-Reperfusion Model. The rat myocardial ischemia-reperfusion model will be used (Birnbaum et al., 2005; Huang et al., 2007). This model consists of 30 min coronary artery occlusion followed by 4-hr reperfusion.
# Saline (0.5 ml) will be infused to rats serving as control.
# Each antagonist or their combination will be infused 20-min prior to DPDPE infusion. Arterial blood pressure and heart rate will be monitored continuously throughout the experiments.
# [4] = test system: left ventricular systolic function; assay: Left ventricular function by echocardiography after intravenous DPDPE; type: in vivo, rat
# Description: The measurements were obtained from left ventricular short-axis view using echocardiography.
# Intravenous infusion of δ-opioid agonist DPDPE to rats causes sustained increase in left ventricular systolic function as reflected by increased left ventricular fractional shortening and ejection fraction (FIG. 10). The fractional shortening and ejection fraction are two clinical parameters used for evaluating left ventricular function assayed by echocardiograph. This positive inotropic effect elicited by DPDPE sustains for more than 40 minutes following drug injection. Augmenting cardiac contractile function by δ-opioid receptor agonist has not been reported. δ-opioid agonists can augment heart performance and can be beneficial for clinical treatment of congestive heart failure.
# [5] = DPDPE 100 μg/kg i.v., rats n=3, LV short-axis echocardiography, FIG. 10
molecule,measurement,setting,value
CNC[C@H](O)c1ccc(O)c(O)c1 [epinephrine],increase in calcitonin-gene related peptide mRNA compared to untreated (UT) group,"[1]; ICA cells treated with epinephrine for 1 hr, FIG. 5",6 fold
same,duration of CGRP gene regulatory effect,[1]; following a brief 60-min epinephrine treatment,24 h
same,increase in calcitonin-gene related peptide mRNA (quantitative real-time PCR),[1],14 fold
same,effect on calcitonin-gene related peptide mRNA levels,[1],increases
COc1cccc2c1C(=O)c1c(O)c3c(c(O)c1C2=O)C[C@@](O)(C(=O)CO)C[C@@H]3O[C@H]1C[C@H](N)[C@H](O)[C@H](C)O1 [doxorubicin],incidence of doxorubicin-induced cardiomyopathy,[2]; dose of 501-550 mg/m^2 body surface area,> 5%
same,incidence of doxorubicin-induced cardiomyopathy,[2]; dose over 550 mg/m^2,30%
CC(C)(C)NCC(O)c1cc(O)cc(O)c1 (stereo not drawn) [terbutaline],"effect on infarct size, drug delivered before LAD ligation / acute MI","[3]; i.v. infusion before LAD ligation, terbutaline 100 μg/kg, CGRP 30 ng/kg or combination, FIG. 9",no significant infarct-size-reduction
"(D-Pen^2, D-Pen^5)-enkephalin [DPDPE]",increase in calcitonin-gene related peptide mRNA (quantitative real-time PCR),[1],2 fold
same,effect on calcitonin-gene related peptide mRNA levels,[1],modestly increases
same,infarct size,[3]; FIG. 6,11±2%
same,reduction of infarct size compared to control group,"[3]; δ-opioid agonist i.v. before ischemia, FIG. 6",57%
same,increase in ejection fraction,[4]; [5],23%
same,increase in fractional shortening,[4]; [5],54%
same,duration of positive inotropic effect following drug injection,"[4]; i.v. DPDPE, rats",more than 40 minutes
"CGRP8-37: calcitonin-gene related peptide receptor antagonist (VTHRLAGLLSRSGGVVKNNFVPTNVGSKAF; ends and bridges not checked; UniProt P06881 90-119, looked up, fragment)",infarct size,[3]; FIG. 6,35±8%
same,increase in infarct size compared to saline control,"[3]; CGRP8-37 i.v. 30 min before onset of myocardial ischemia, FIG. 6",38%
Cc1ccc(OCC(O)C(C)NC(C)C)c2c1CCC2 (stereo not drawn) [ICI-118551],effect on epinephrine-induced CGRP gene upregulation,"[1]; ICA cells, epinephrine in the presence of ICI-118551, FIG. 5",epinephrine failed to increase; also recorded: attenuated
same,effect on epinephrine-induced CGRP mRNA regulation,"[1]; ICI at 50 μmol/L, ICA cells, FIG. 5",completely eliminated
